{"source": "patent US4261892A", "about": "“2,4,6-Tris-(substituted-amino)-s-triazines” (American Cyanamid Company, priority 1979, dated 1981)", "key": {"[1]": {"system": "arthritic paw swelling / joint and bone deterioration", "details": "literature (Wong et al., Bobalick et al.); cited from earlier work"}, "[2]": {"system": "Adjuvant Arthritis In Rats", "assay": "Adjuvant-induced arthritis in rats (chronic inflammation accompanied by joint destruction)", "assay_type": "in vivo, Royal Hart, Wistar strain rats", "details": "for inhibition in vivo at 0.25 mg/kg / inhibition in vivo at 0.5 mg/kg / inhibition in vivo at 2 mg/kg / inhibition in vivo at 1 mg/kg / inhibition in vivo at 50 mg/kg: Rattus norvegicus", "description": "Groups of three Royal Hart, Wistar strain rats weighing 200±10 grams each were injected intradermally in the right hind paw with Freund's adjuvant (dried human tubercle bacilli in a mineral oil vehicle) at a dose of 2 mg./kg. of body weight. […] On the 14th and 21st day post challenge the diameter of the injected paw (primary lesion) was measured by micrometer caliper. The volume of inflamed paws were estimated from these measurements and the results are expressed as percent inhibition of swelling as compared to controls. At the same time, the other inflamed sites, such as ears, paws and tail (secondary lesions) were observed and each rat was graded as to degree of inflammation and swelling present. The grading is based on a scale of 0 to 24 where 0 represents a complete absence of induced arthritic nodules and 24 represents the maximum degree of inflammation. The mean grade for each treated group is calculated and the effects of each compound are expressed as percent inhibition of the control grade."}, "[3]": {"details": "po, 336 h, read-out: % Inhibition of Swelling (primary lesion) Day 14"}, "[4]": {"details": "oral 0.25 mg./kg. once daily days 0-13, Day 14"}, "[5]": {"details": "oral 0.25 mg./kg. once daily days 0-13, Day 21"}, "[6]": {"details": "oral 0.5 mg./kg. once daily days 0-13, Day 14"}, "[7]": {"details": "oral 0.5 mg./kg. once daily days 0-13, Day 21"}, "[8]": {"details": "oral 1 mg./kg. once daily days 0-13, Day 14"}, "[9]": {"details": "oral 1 mg./kg. once daily days 0-13, Day 21"}, "[10]": {"details": "oral 2 mg./kg. once daily days 0-13, Day 14"}, "[11]": {"details": "oral 2 mg./kg. once daily days 0-13, Day 21"}, "[12]": {"details": "oral 50 mg./kg. once daily days 0-13, Day 14"}, "[13]": {"details": "oral 50 mg./kg. once daily days 0-13, Day 21"}, "[14]": {"details": "oral 50 mg./kg. once daily days 0-13"}}, "note": "Read-outs that look alike come from different tables or passages of the source.", "data": [{"smiles": "COc1ccc2c(c1)c(CC(=O)O)c(C)n2C(=O)c1ccc(Cl)cc1", "note": "[Indomethacin]", "values": [{"measurement": "arthritic paw swelling", "setting": "[1]", "value": "inhibit arthritic paw swelling"}, {"measurement": "joint and bone deterioration", "setting": "[1]", "value": "prevent joint and bone deterioration"}, {"measurement": "inhibition in vivo at 0.25 mg/kg", "setting": "[2]; 336 h, oral 0.25 mg./kg. once daily days 0-13, Day 14, read-out: % Inhibition of Swelling (primary lesion) Day 14", "value": 30, "unit": "%"}, {"measurement": "inhibition in vivo at 0.5 mg/kg", "setting": "[2]; 336 h, oral 0.5 mg./kg. once daily days 0-13, Day 14, read-out: % Inhibition of Swelling (primary lesion) Day 14", "value": 40, "unit": "%"}, {"measurement": "inhibition in vivo at 2 mg/kg", "setting": "[2]; 336 h, oral 2 mg./kg. once daily days 0-13, Day 14, read-out: % Inhibition of Swelling (primary lesion) Day 14", "value": 51, "unit": "%"}, {"measurement": "inhibition in vivo at 0.25 mg/kg", "setting": "[2]; 504 h, oral 0.25 mg./kg. once daily days 0-13, Day 21, read-out: % Inhibition of Swelling (primary lesion) Day 21", "value": 4, "unit": "%"}, {"measurement": "inhibition in vivo at 0.5 mg/kg", "setting": "[2]; 504 h, oral 0.5 mg./kg. once daily days 0-13, Day 21, read-out: % Inhibition of Swelling (primary lesion) Day 21", "value": 20, "unit": "%"}, {"measurement": "inhibition in vivo at 1 mg/kg", "setting": "[2]; 504 h, oral 1 mg./kg. once daily days 0-13, Day 21, read-out: % Inhibition of Swelling (primary lesion) Day 21", "value": 19, "unit": "%"}, {"measurement": "inhibition in vivo at 2 mg/kg", "setting": "[2]; 504 h, oral 2 mg./kg. once daily days 0-13, Day 21, read-out: % Inhibition of Swelling (primary lesion) Day 21", "value": 24, "unit": "%"}, {"measurement": "inhibition in vivo at 1 mg/kg", "setting": "[2]; [3]", "value": 46, "unit": "%"}, {"measurement": "% Inhibition of Control Grade (secondary lesion) Day 14", "setting": "[2]; [4]", "value": 22, "unit": "%"}, {"measurement": "Mean Weight Gain (grams) Day 14", "setting": "[2]; [4]", "value": 51, "unit": "grams"}, {"measurement": "% Inhibition of Control Grade (secondary lesion) Day 21", "setting": "[2]; [5]", "value": 4, "unit": "%"}, {"measurement": "Mean Weight Gain (grams) Day 21", "setting": "[2]; [5]", "value": 57, "unit": "grams"}, {"measurement": "Dead/Treated at 21 Days", "setting": "[2]; oral 0.25 mg./kg. once daily days 0-13", "value": "0/9"}, {"measurement": "% Inhibition of Control Grade (secondary lesion) Day 14", "setting": "[2]; [6]", "value": 25, "unit": "%"}, {"measurement": "Mean Weight Gain (grams) Day 14", "setting": "[2]; [6]", "value": 53, "unit": "grams"}, {"measurement": "% Inhibition of Control Grade (secondary lesion) Day 21", "setting": "[2]; [7]", "value": 17, "unit": "%"}, {"measurement": "Mean Weight Gain (grams) Day 21", "setting": "[2]; [7]", "value": 51, "unit": "grams"}, {"measurement": "Dead/Treated at 21 Days", "setting": "[2]; oral 0.5 mg./kg. once daily days 0-13", "value": "5/54"}, {"measurement": "% Inhibition of Control Grade (secondary lesion) Day 14", "setting": "[2]; [8]", "value": 34, "unit": "%"}, {"measurement": "Mean Weight Gain (grams) Day 14", "setting": "[2]; [8]", "value": 63, "unit": "grams"}, {"measurement": "% Inhibition of Control Grade (secondary lesion) Day 21", "setting": "[2]; [9]", "value": 20, "unit": "%"}, {"measurement": "Mean Weight Gain (grams) Day 21", "setting": "[2]; [9]", "value": 65, "unit": "grams"}, {"measurement": "Dead/Treated at 21 Days", "setting": "[2]; oral 1 mg./kg. once daily days 0-13", "value": "9/54"}, {"measurement": "% Inhibition of Control Grade (secondary lesion) Day 14", "setting": "[2]; [10]", "value": 38, "unit": "%"}, {"measurement": "Mean Weight Gain (grams) Day 14", "setting": "[2]; [10]", "value": 68, "unit": "grams"}, {"measurement": "% Inhibition of Control Grade (secondary lesion) Day 21", "setting": "[2]; [11]", "value": 25, "unit": "%"}, {"measurement": "Mean Weight Gain (grams) Day 21", "setting": "[2]; [11]", "value": 68, "unit": "grams"}, {"measurement": "Dead/Treated at 21 Days", "setting": "[2]; oral 2 mg./kg. once daily days 0-13", "value": "8/57"}]}, {"smiles": "CCCCNc1nc(N2CC3CCC(CC3)C2)nc(N2CC3CCC(CC3)C2)n1", "note": "[3,3'-(6-butylamino-s-triazin-2,4-diyl)bis-3-azabicyclo[3.2.2]nonane]", "values": [{"measurement": "inhibition in vivo at 50 mg/kg", "setting": "[2]; [3]", "value": 46, "unit": "%"}, {"measurement": "inhibition in vivo at 50 mg/kg", "setting": "[2]; po, 504 h, read-out: % Inhibition of Swelling (primary lesion) Day 21", "value": 32, "unit": "%"}, {"measurement": "Mean Weight Gain (grams) Day 14", "setting": "[2]; [12]", "value": 82, "unit": "grams"}, {"measurement": "Mean Weight Gain (grams) Day 21", "setting": "[2]; [13]", "value": 107, "unit": "grams"}, {"measurement": "Dead/Treated at 21 Days", "setting": "[2]; [14]", "value": "2/12"}]}, {"smiles": "CC(C)(C)C(C)(C)Nc1nc(N[C@H]2C[C@@H]3CC[C@H]2C3)nc(NC(C)(C)C(C)(C)C)n1", "note": "(relative stereo) [N^2-(exo[2.2.1]norbornyl)-N^4, N^6-bis(1,1,2,2-tetramethylpropyl)melamine]", "values": [{"measurement": "inhibition in vivo at 50 mg/kg", "setting": "[2]; 336 h, oral 50 mg./kg. once daily days 0-13, Day 14, read-out: % Inhibition of Swelling (primary lesion) Day 14", "value": 49, "unit": "%"}, {"measurement": "inhibition in vivo at 50 mg/kg", "setting": "[2]; 504 h, oral 50 mg./kg. once daily days 0-13, Day 21, read-out: % Inhibition of Swelling (primary lesion) Day 21", "value": 24, "unit": "%"}, {"measurement": "Mean Weight Gain (grams) Day 14", "setting": "[2]; [12]", "value": 97, "unit": "grams"}, {"measurement": "Mean Weight Gain (grams) Day 21", "setting": "[2]; [13]", "value": 93, "unit": "grams"}, {"measurement": "Dead/Treated at 21 Days", "setting": "[2]; [14]", "value": "0/3"}]}]}
